Reference: patent publication US20230112845A1, “COMPOSITIONS OF BERBERINE URSODE[…] METHODS THEREOF FOR TREATING FATTY LIVER DISEASE, DIABETES AND HYPERLIPIDEMIA” (SHENZHEN HIGHTIDE BIOPHARMACEUTICAL LTD., priority 2020, published 2023)

Test system: subjects with a history of hypercholesterolemia
Test: Phase 1b randomized placebo-controlled dose-ranging study: serum lipids, lipoproteins, HbA1c, ALT
Assay type: in vivo, human
Parameters: TG (serum level) / TC (serum level) / Non-HDL-c (serum level) / HDL-c (serum level): unit not given here; LDL-c (serum level): unit: mmol/L
Procedure: A double-blind, randomized, placebo-controlled, dose ranging study was carried out that compared three doses of berberine ursodeoxycholate (BUDCA, a.k.a. HTD1801) to placebo in a cohort of subjects with a history of hypercholesterolemia and serum LDL-c levels above 2.59 mmol/L (>99.9 mg/dL). BUDCA was administered in two divided doses each day for 28 days. The primary endpoints of the study were safety and tolerability of this new compound, as well as its effect in lowering serum lipid and lipoprotein concentrations.
Adult subjects were recruited and enrolled into this double-blind, randomized placebo-controlled dose ranging study at one of three research units in Australia between April and December of 2018. The key entry criteria were hypercholesterolemia, with serum LDL-c >2.59 mmol/L (>99.9 mg/dL) and overweight or obesity (BMI between 25 and 40 kg/m^2). […] Subjects were asked to discontinue the use of lipid-lowering medications at least 28 days prior to their first dose of BUDCA and for the duration of the study.
Subjects underwent an initial assessment and were then randomized to receive ascending doses of BUDCA in three sequential dosing groups: Group I received 500 mg/day of BUDCA or matching placebo in a ratio of 3:1. Group II received 1,000 mg/day of BUDCA or placebo, 3:1 and Group III received 2,000 mg/day BUDCA or placebo, 3:1. Study medication or placebo was given in two equal doses daily for 28 days. The investigational product BUDCA was administered in the form of film-coated tablets, each tablet containing 250 mg of BUDCA. The placebo was identical in appearance to the active agent. Subjects were instructed to take their tablets after breakfast and after dinner respectively with a glass of water.
The groups were enrolled sequentially, but follow-up overlapped (the next cohort could begin during the follow-up period of the prior cohort) (FIG. 1). The decision to move to the next dose level was based upon tolerability and safety findings, as assessed by a Safety Monitoring Committee. Individual subjects were admitted overnight for their first and last doses and so as to draw blood samples for pharmacokinetic studies; in between, they were seen every few days. Subjects were asked to arrive in a fasting state (typically overnight). After having vital signs measured and baseline laboratory tests taken, the subject was given a morning meal and then observed while taking their first dose of BUDCA with a glass of water. They stayed overnight to allow sampling for PK studies which were drawn at the following time points −18 hours, −12, −6, 0 time (pre-dose), +0.25 (post-dose), +0.5, +1, +2, +3, +4, +8, +12, +24 hours. Blood samples for PK studies were collected in dipotassium ethylene diamine tetra-acetic acid (K2EDTA) as the anticoagulant and the assays were done on plasma.
Blood samples for serum biochemistry (including lipid levels) and blood counts were drawn with subjects in a fasting state, at baseline and every 14 days through the study. Samples were shipped in a refrigerated state to laboratory where testing was done using routine clinical methodology, as follows: HbA1c was measured by ion-exchange HPLC (Bio-Rad D-100). For samples received by the laboratory prior to Sep. 2, 2018, the following analytes were measured on the Roche Diagnostics Modular P100 platform (ALT by photometric assay, TC by Trinder peroxidase assay, LDL-c by photometric assay, HDL-c by homogenous enzymatic colorimetric assay and TG by photometric assay). For samples received by the laboratory after Sep. 2, 2018, the following analytes were measured on the Beckman Coulter AU 5800 platform (ALT by photometric assay, TC by cholesterol-oxidase/peroxidase assay, LDL-c by homogenous enzymatic colorimetric assay, HDL-c by immune inhibition and cholesterol oxidase assay and TG by an enzymatic method using opiase/GK/GPO-PAP-4 amino phenazone). […]

[1] = highest dose (2,000 mg per day), day 28

## COc1ccc2cc3[n+](cc2c1OC)CCc1cc2c(cc1-3)OCO2.C[C@H](CCC(=O)[O-])[C@H]1CC[C@H]2[C@@H]3[C@@H](O)C[C@@H]4C[C@H](O)CC[C@]4(C)[C@H]3CC[C@]12C [BUDCA, berberine ursodeoxycholate]
500 mg/day, Day 14, baseline 1.25, P vs. placebo n.s.
  HDL-c (serum level): 1.22
500 mg/day, Day 14, baseline 2.11, P vs. placebo n.s.
  TG (serum level): 1.89
500 mg/day, Day 14, baseline 4.01, P vs. placebo n.s.
  LDL-c (serum level): 3.87
500 mg/day, Day 14, baseline 4.85, P vs. placebo n.s.
  Non-HDL-c (serum level): 4.75
500 mg/day, Day 14, baseline 6.13, P vs. placebo n.s.
  TC (serum level): 5.96
500 mg/day, Day 28, baseline 1.25, P vs. placebo n.s.
  HDL-c (serum level): 1.17
500 mg/day, Day 28, baseline 2.11, P vs. placebo n.s.
  TG (serum level): 2.27
500 mg/day, Day 28, baseline 4.01, P vs. placebo n.s.
  LDL-c (serum level): 3.72
500 mg/day, Day 28, baseline 4.85, P vs. placebo 0.03
  Non-HDL-c (serum level): 4.71
500 mg/day, Day 28, baseline 6.13, P vs. placebo n.s.
  TC (serum level): 5.88
1,000 mg/day, Day 14, baseline 1.32, P vs. placebo n.s.
  HDL-c (serum level): 1.29
1,000 mg/day, Day 14, baseline 1.76, P vs. placebo n.s.
  TG (serum level): 1.73
1,000 mg/day, Day 14, baseline 3.68, P vs. placebo n.s.
  LDL-c (serum level): 3.42
1,000 mg/day, Day 14, baseline 4.48, P vs. placebo n.s.
  Non-HDL-c (serum level): 4.23
1,000 mg/day, Day 14, baseline 5.81, P vs. placebo n.s.
  TC (serum level): 5.51
1,000 mg/day, Day 28, baseline 1.32, P vs. placebo n.s.
  HDL-c (serum level): 1.23
1,000 mg/day, Day 28, baseline 1.76, P vs. placebo 0.028
  TG (serum level): 1.86
1,000 mg/day, Day 28, baseline 3.68, P vs. placebo n.s.
  LDL-c (serum level): 3.51
1,000 mg/day, Day 28, baseline 4.48, P vs. placebo 0.025
  Non-HDL-c (serum level): 4.31
1,000 mg/day, Day 28, baseline 5.81, P vs. placebo n.s.
  TC (serum level): 5.54
2,000 mg/day, Day 14, baseline 1.24, P vs. placebo n.s.
  HDL-c (serum level): 1.33
2,000 mg/day, Day 14, baseline 1.60, P vs. placebo n.s.
  TG (serum level): 1.42
2,000 mg/day, Day 14, baseline 3.85, P vs. placebo 0.0093
  LDL-c (serum level): 3.40
2,000 mg/day, Day 14, baseline 4.62, P vs. placebo 0.0018
  Non-HDL-c (serum level): 4.04
2,000 mg/day, Day 14, baseline 5.91, P vs. placebo 0.01
  TC (serum level): 5.37
2,000 mg/day, Day 28, baseline 1.24, P vs. placebo n.s.
  HDL-c (serum level): 1.29
2,000 mg/day, Day 28, baseline 1.60, P vs. placebo 0.0018
  TG (serum level): 1.54
2,000 mg/day, Day 28, baseline 3.85, P vs. placebo 0.091
  LDL-c (serum level): 3.44
2,000 mg/day, Day 28, baseline 4.62, P vs. placebo 0.0002
  Non-HDL-c (serum level): 4.14
2,000 mg/day, Day 28, baseline 5.91, P vs. placebo 0.003
  TC (serum level): 5.42
500-2,000 mg/day, 28 days
  ALT level during therapy: did not change significantly
  HbA1C level during therapy: did not change significantly
500-2,000 mg/day, maximum reductions relative to placebo after 14 days
  serum lipid levels among subjects receiving active therapy: decreased in a dose-dependent fashion
[1]
  change in HDL-c concentration: no significant changes
  change in TG concentration: no significant changes
Highest dose (2,000 mg per day), day 28, P=0.0004
  reduction in the serum concentration of TC: 8.2%
Highest dose (2,000 mg per day), day 28, P=0.0006
  reduction in the serum concentration of LDL-c: 10.4%
